According to BindingDB's records for patent US20250313563 (The Broad Institute, 2025):
Several values for one entry are separate records, joined by “and”; a condition that tells them apart may be missing. Equal entries are not always repeated.

What was measured:
[1] = target: Glycogen synthase kinase-3 alpha (Homo sapiens, UniProt P49840); assay: TR-FRET Assay
Summary of the method: (§1)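 Kinase activity, measured after a 30-minute compound preincubation, was stopped with EDTA and quantified by TR-FRET using a Tb-labelled pSer641 antibody paired with streptavidin-d2.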

[2] = target: Glycogen synthase kinase-3 beta (Homo sapiens, UniProt P49841); assay: TR-FRET Assay
Chain of Glycogen synthase kinase-3 beta (P49841 whole entry): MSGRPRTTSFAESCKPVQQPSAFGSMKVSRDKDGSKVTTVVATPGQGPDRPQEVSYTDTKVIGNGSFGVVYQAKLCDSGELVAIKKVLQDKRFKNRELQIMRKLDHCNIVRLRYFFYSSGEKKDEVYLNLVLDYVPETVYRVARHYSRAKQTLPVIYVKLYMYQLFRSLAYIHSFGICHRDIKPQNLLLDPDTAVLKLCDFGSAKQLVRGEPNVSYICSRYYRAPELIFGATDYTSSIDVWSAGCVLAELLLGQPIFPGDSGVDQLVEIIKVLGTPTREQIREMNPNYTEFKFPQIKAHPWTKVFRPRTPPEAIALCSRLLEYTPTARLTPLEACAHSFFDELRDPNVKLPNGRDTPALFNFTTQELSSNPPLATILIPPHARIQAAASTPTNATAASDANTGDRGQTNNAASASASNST
Summary of the method: as §1

Chain of Glycogen synthase kinase-3 alpha (P49840 whole entry): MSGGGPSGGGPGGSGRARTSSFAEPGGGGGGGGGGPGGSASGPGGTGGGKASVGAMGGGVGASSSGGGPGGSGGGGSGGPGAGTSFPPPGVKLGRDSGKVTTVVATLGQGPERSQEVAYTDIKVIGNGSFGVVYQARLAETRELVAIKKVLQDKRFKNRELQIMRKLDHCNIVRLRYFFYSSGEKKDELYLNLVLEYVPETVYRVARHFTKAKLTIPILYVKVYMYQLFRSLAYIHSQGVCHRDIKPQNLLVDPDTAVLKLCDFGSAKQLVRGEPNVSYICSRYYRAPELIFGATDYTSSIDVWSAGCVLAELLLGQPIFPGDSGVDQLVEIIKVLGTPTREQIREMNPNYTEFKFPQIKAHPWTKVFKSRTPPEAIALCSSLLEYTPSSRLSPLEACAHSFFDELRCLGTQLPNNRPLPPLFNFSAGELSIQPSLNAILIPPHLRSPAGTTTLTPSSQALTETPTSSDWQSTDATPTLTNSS

Compound: COc1ccc(S(=O)(=O)N2CCC3(CC2)C2=C(N=NC2)NC2=C3C(=O)CC(C)(C)C2)c(F)c1 [US20250313563, Compound 947255]
- IC50 [1]: < 100 nM
- IC50 [2]: < 100 nM and 100 to 1000 nM

Compound: CC1(C)CC(=O)C2=C(C1)NC1=C(CN=N1)C21CCN(S(=O)(=O)c2ccc(C(F)(F)F)cc2)CC1 [US20250313563, Compound 947256]
- IC50 [1]: < 100 nM
- IC50 [2]: < 100 nM

Compound: Cc1nn(C)c(C)c1S(=O)(=O)N1CCC2(CC1)C1=C(N=NC1)NC1=C2C(=O)CC(C)(C)C1 [US20250313563, Compound 947257]
- IC50 [1]: 100 to 1000 nM
- IC50 [2]: 1000 to 5000 nM

Compound: CC(C)n1ccc(S(=O)(=O)N2CCC3(CC2)C2=C(N=NC2)NC2=C3C(=O)CC(C)(C)C2)n1 [US20250313563, Compound 947258]
- IC50 [1]: < 100 nM
- IC50 [2]: < 100 nM

Compound: Cc1nc(C)c(S(=O)(=O)N2CCC3(CC2)C2=C(N=NC2)NC2=C3C(=O)CC(C)(C)C2)s1 [US20250313563, Compound 947259]
- IC50 [1]: < 100 nM
- IC50 [2]: < 100 nM

Compound: COc1ncccc1S(=O)(=O)N1CCC2(CC1)C1=C(N=NC1)NC1=C2C(=O)CC(C)(C)C1 [US20250313563, Compound 947260]
- IC50 [1]: < 100 nM
- IC50 [2]: < 100 nM and 100 to 1000 nM

Compound: Cc1cccc(S(=O)(=O)N2CCC3(CC2)C2=C(N=NC2)NC2=C3C(=O)CC(C)(C)C2)c1 [US20250313563, Compound 947261]
- IC50 [1]: < 100 nM
- IC50 [2]: < 100 nM

Compound: CC1(C)CC(=O)C2=C(C1)NC1=C(CN=N1)C21CCN(S(=O)(=O)c2cc(F)ccn2)CC1 [US20250313563, Compound 947262]
- IC50 [1]: 100 to 1000 nM
- IC50 [2]: 100 to 1000 nM

Compound: COc1cc(S(=O)(=O)N2CCC3(CC2)C2=C(N=NC2)NC2=C3C(=O)CC(C)(C)C2)ccc1F [US20250313563, Compound 947263]
- IC50 [1]: < 100 nM and 100 to 1000 nM
- IC50 [2]: < 100 nM and 1000 to 5000 nM

Compound: CC1(C)CC(=O)C2=C(C1)NC1=C(CN=N1)C21CCN(S(=O)(=O)c2cccc(C(F)F)c2)CC1 [US20250313563, Compound 947264]
- IC50 [1]: < 100 nM
- IC50 [2]: < 100 nM and 100 to 1000 nM

Compound: CC1(C)CC(=O)C2=C(C1)NC1=C(CN=N1)C21COC2(CN(C(=O)C3CCC(F)(F)C3)C2)C1 (configuration not stated) [US20250313563, Compound 947265]
- IC50 [1]: < 100 nM
- IC50 [2]: 100 to 1000 nM

Compound: CC1CC(C(=O)N2CC3(C2)CC2(CO3)C3=C(N=NC3)NC3=C2C(=O)CC(C)(C)C3)C1 (configuration not stated) [US20250313563, Compound 947266]
- IC50 [1]: < 100 nM
- IC50 [2]: < 100 nM

Compound: CC1(C)CC(=O)C2=C(C1)NC1=C(CN=N1)C21COC2(CN(C(=O)C3CCC(F)CC3)C2)C1 (configuration not stated) [US20250313563, Compound 947267]
- IC50 [1]: < 100 nM
- IC50 [2]: 100 to 1000 nM

Compound: CC1CCC(C(=O)N2CC3(C2)CC2(CO3)C3=C(N=NC3)NC3=C2C(=O)CC(C)(C)C3)C1 (configuration not stated) [US20250313563, Compound 947268]
- IC50 [1]: < 100 nM
- IC50 [2]: < 100 nM

Compound: CC1CCC(CC(=O)N2CC3(C2)CC2(CO3)C3=C(N=NC3)NC3=C2C(=O)CC(C)(C)C3)C1 (configuration not stated) [US20250313563, Compound 947269]
- IC50 [1]: < 100 nM and 100 to 1000 nM
- IC50 [2]: < 100 nM and 100 to 1000 nM

Compound: CCC(C)C(=O)N1CC2(C1)CC1(CO2)C2=C(N=NC2)NC2=C1C(=O)CC(C)(C)C2 (configuration not stated) [US20250313563, Compound 947270]
- IC50 [1]: < 100 nM
- IC50 [2]: 100 to 1000 nM

Compound: CC1(C)CC(=O)C2=C(C1)NC1=C(CN=N1)C21COC2(CN(C(=O)C3(C)CC(F)C3)C2)C1 (configuration not stated) [US20250313563, Compound 947271]
- IC50 [1]: < 100 nM
- IC50 [2]: 100 to 1000 nM

Compound: CC1(C)CC(=O)C2=C(C1)NC1=C(CN=N1)C21COC2(CN(C(=O)C3CC3(F)F)C2)C1 (configuration not stated) [US20250313563, Compound 947272]
- IC50 [1]: < 100 nM
- IC50 [2]: < 100 nM

Compound: CC(C)C1CC(C(=O)N2CC3(C2)CC2(CO3)C3=C(N=NC3)NC3=C2C(=O)CC(C)(C)C3)C1 (configuration not stated) [US20250313563, Compound 947273]
- IC50 [1]: < 100 nM
- IC50 [2]: < 100 nM

Compound: CC1CCCC1C(=O)N1CC2(C1)CC1(CO2)C2=C(N=NC2)NC2=C1C(=O)CC(C)(C)C2 (configuration not stated) [US20250313563, Compound 947274]
- IC50 [1]: < 100 nM
- IC50 [2]: 100 to 1000 nM

Compound: CC1(C)CC(=O)C2=C(C1)NC1=C(CN=N1)C21COC2(CN(C(=O)C(C)(F)F)C2)C1 (configuration not stated) [US20250313563, Compound 947275]
- IC50 [1]: < 100 nM and 100 to 1000 nM
- IC50 [2]: < 100 nM and 100 to 1000 nM
